pIC50: −log10 of the molar value. Where a name gives a salt, the structure may show the parent alone. Read-outs that look alike come from different tables or passages of the source.
Columns and labels:
PAXF 546 = test: Cell lines exhibiting drug resistance (IC50); type: cell-based
PAXF PANC-1 = test: Cell lines exhibiting drug resistance (IC50); type: cell-based
PAXF 2005 = test: Cell lines exhibiting drug resistance (IC50); type: cell-based
PAXF 1986 = test: Cell lines exhibiting drug resistance (IC50); type: cell-based
PAXF 2035 = test: Cell lines exhibiting drug resistance (IC50); type: cell-based
PAXF 1998 = test: Cell lines exhibiting drug resistance (IC50); type: cell-based
PAXF HPAC = test: Cell lines exhibiting drug resistance (IC50); type: cell-based
PAXF CAPAN-2 = test: Cell lines exhibiting drug resistance (IC50); type: cell-based
PAXF 2059 = test: Cell lines exhibiting drug resistance (IC50); type: cell-based
[1] = tested on: unresectable pancreatic cancer; details: phase III study; cited from earlier work
[2] = tested on: metastatic pancreatic cancer; details: first-line therapy; cited from earlier work
pancreatic cancer [3] = details: phase III study, pancreatic cancer patients; cited from earlier work
[4] = tested on: metastatic pancreatic cancer; details: first-line therapy of metastatic pancreatic cancer; cited from earlier work
pancreatic cancer [5] = details: pancreatic cancer patients; P=0.002; cited from earlier work

## O=NN(CCCl)C(=O)NC1CCCCC1 [Lomustine]
PAXF 546; Homo sapiens, PAXF546
  pIC50: 3.85
PAXF PANC-1; Homo sapiens
  pIC50: 4.36

## CC[C@]1(O)C[C@@H]2CN(CCc3c([nH]c4ccccc34)[C@@](C(=O)OC)(c3cc4c(cc3OC)N(C)[C@H]3[C@@](O)(C(=O)OC)[C@H](OC(C)=O)[C@]5(CC)C=CCN6CC[C@]43[C@@H]65)C2)C1 [Vinblastine sulfate]
PAXF 546; Homo sapiens, PAXF546
  pIC50: 7.15
PAXF PANC-1; Homo sapiens
  pIC50: 9.00

## CN(Cc1cnc2nc(N)nc(N)c2n1)c1ccc(C(=O)N[C@@H](CCC(=O)O)C(=O)O)cc1 [Methotrexate]
PAXF 546; Homo sapiens, PAXF546
  pIC50: 7.18
PAXF PANC-1; Homo sapiens
  pIC50: 5.00

## C#Cc1cccc(Nc2ncnc3cc(OCCOC)c(OCCOC)cc23)c1 [Erlotinib HCl]
PAXF 2005
  pIC50: 4.28
PAXF 546; Homo sapiens, PAXF546
  pIC50: 4.34
PAXF 1986
  pIC50: 4.00
PAXF 2035
  pIC50: 4.08
PAXF PANC-1; Homo sapiens
  pIC50: 3.95
PAXF 1998
  pIC50: 4.00

## N.N.[Cl][Pt][Cl] [Cisplatin]
PAXF 2005; PAXF 2005
  pIC50: 4.97
PAXF 546
  pIC50: 4.94
PAXF 1986
  pIC50: 5.32
PAXF HPAC
  pIC50: 4.50
PAXF CAPAN-2
  pIC50: 4.21
PAXF 2035
  pIC50: 4.34
PAXF PANC-1
  pIC50: 5.13
PAXF 1998
  pIC50: 4.12
PAXF 2059
  pIC50: 4.39

## CCN(CC)CCNC(=O)c1c(C)[nH]c(/C=C2\C(=O)Nc3ccc(F)cc32)c1C [Sunitinib malate]
PAXF 2005
  pIC50: 5.15
PAXF 546; Homo sapiens, PAXF546
  pIC50: 5.13
PAXF 1986
  pIC50: 5.37
PAXF 2035
  pIC50: 5.62
PAXF PANC-1; Homo sapiens
  pIC50: 5.07
PAXF 1998
  pIC50: 4.88
PAXF 2059
  pIC50: 4.78

## CN(Cc1cnc2nc(N)nc(N)c2n1)c1ccc(C(=O)N[C@@H](CCC(=O)O)C(=O)O)cc1 [Methotrexate Hydrat]
PAXF 2005; PAXF 2005
  pIC50: 5.00
PAXF 546
  pIC50: 6.89
PAXF PANC-1
  pIC50: 7.42
PAXF 1998
  pIC50: 6.80
PAXF 2059
  pIC50: 7.51

## Nc1nc2[nH]cc(CCc3ccc(C(=O)N[C@@H](CCC(=O)O)C(=O)O)cc3)c2c(=O)[nH]1 [Pemetrexed, dinatrium]
PAXF 546
  pIC50: 6.94
PAXF PANC-1
  pIC50: 4.89

## Nc1ccn([C@@H]2O[C@H](CO)[C@@H](O)C2(F)F)c(=O)n1 [gemcitabine]
[1]
  median overall survival: 8.8 months
[2]
  median overall survival: 6.7 months
Pancreatic cancer [3]
  one-year survival: 17%
[4]
  median overall survival: 6.8 months
Pancreatic cancer [5]
  median overall survival: 5.6 months

## CCCS(=O)(=O)Nc1ccc(F)c(C(=O)c2c[nH]c3ncc(-c4ccc(Cl)cc4)cc23)c1F [Vemurafenib]
PAXF 2005
  pIC50: 5.17
PAXF 546; Homo sapiens, PAXF546
  pIC50: 5.27
PAXF 1986
  pIC50: 5.03
PAXF 2035
  pIC50: 4.94
PAXF PANC-1; Homo sapiens
  pIC50: 4.79
PAXF 1998
  pIC50: 4.97
PAXF 2059
  pIC50: 4.94

## O=c1[nH]cc(F)c(=O)[nH]1 [5-Fluorouracil]
PAXF 2005
  pIC50: 4.99
PAXF 546; Homo sapiens, PAXF546
  pIC50: 5.90
Pancreatic cancer [5]
  median overall survival: 4.4 months
PAXF 1986
  pIC50: 5.65
PAXF 2035
  pIC50: 3.98
PAXF PANC-1; Homo sapiens
  pIC50: 5.49
PAXF 1998
  pIC50: 5.13

## Bleomycin sulfate
PAXF 546
  pIC50: 4.97
PAXF PANC-1
  pIC50: 6.83

## CS(=O)(=O)OC[C@H](O)[C@@H](O)COS(C)(=O)=O [Treosulfan]
PAXF 546; Homo sapiens, PAXF546
  pIC50: 4.32
PAXF PANC-1; Homo sapiens
  pIC50: 5.70

## CC[C@@]1(O)C(=O)OCc2c1cc1n(c2=O)Cc2cc3c(CN(C)C)c(O)ccc3nc2-1 [Topotecan HCl]
PAXF 546; Homo sapiens, PAXF546
  pIC50: 7.10
PAXF PANC-1; Homo sapiens
  pIC50: 7.38

## N.N.O=C([O-])C1(C(=O)[O-])CCC1.[Pt+2] [Carboplatin]
PAXF 546
  pIC50: 4.77
PAXF PANC-1
  pIC50: 4.81

## O=C1[O][Pt]2([NH][C@@H]3CCCC[C@H]3[NH]2)[O]C1=O [Oxaliplatin]
PAXF 2005; PAXF 2005
  pIC50: 4.90
PAXF 546
  pIC50: 5.91
PAXF 1986
  pIC50: 5.79
PAXF 2035
  pIC50: 4.00
PAXF PANC-1
  pIC50: 6.00
PAXF 1998
  pIC50: 4.46

## CC[C@]1(O)C[C@H]2CN(CCc3c([nH]c4ccccc34)[C@@](C(=O)OC)(c3cc4c(cc3OC)N(C=O)[C@H]3[C@@](O)(C(=O)OC)[C@H](OC(C)=O)[C@]5(CC)C=CCN6CC[C@]43[C@@H]65)C2)C1 [Vincristine sulfate]
PAXF 2005
  pIC50: 7.35
PAXF 546; Homo sapiens, PAXF546
  pIC50: 6.61
PAXF 1986
  pIC50: 6.52
PAXF 2035
  pIC50: 6.34
PAXF PANC-1; Homo sapiens
  pIC50: 8.52
PAXF 1998
  pIC50: 8.10

## CO[C@@]12[C@H](COC(N)=O)C3=C(C(=O)C(C)=C(N)C3=O)N1C[C@@H]1N[C@@H]12 [Mitomycin C]
PAXF 2005; PAXF 2005
  pIC50: 6.56
PAXF 546
  pIC50: 6.33
PAXF 1986
  pIC50: 6.73
PAXF 2035
  pIC50: 6.17
PAXF PANC-1
  pIC50: 5.95
PAXF 1998
  pIC50: 6.01

## FOLFIRINOX
[4]
  median overall survival: 11.1 months

## CC(=O)O[C@H]1C(=O)[C@@]2(C)[C@H]([C@H](OC(=O)c3ccccc3)[C@]3(O)C[C@H](OC(=O)[C@H](O)[C@@H](NC(=O)c4ccccc4)c4ccccc4)C(C)=C1C3(C)C)[C@]1(OC(C)=O)CO[C@@H]1C[C@@H]2O [Paclitaxel]
PAXF 2005
  pIC50: 6.51
PAXF 546; Homo sapiens, PAXF546
  pIC50: 6.36
PAXF 1986
  pIC50: 6.69
PAXF HPAC; Homo sapiens
  pIC50: 6.42
PAXF CAPAN-2; Homo sapiens
  pIC50: 6.35
PAXF 2035
  pIC50: 6.84
PAXF PANC-1; Homo sapiens
  pIC50: 7.34
PAXF 1998
  pIC50: 6.93
PAXF 2059
  pIC50: 6.58

## CC[C@]1(O)C[C@@H]2CN(CCc3c([nH]c4ccccc34)[C@@](C(=O)OC)(c3cc4c(cc3OC)N(C)[C@H]3[C@@](O)(C(N)=O)[C@H](O)[C@]5(CC)C=CCN6CC[C@]43[C@@H]65)C2)C1 [Vindesin sulfate]
PAXF 546
  pIC50: 6.96
PAXF PANC-1
  pIC50: 8.30

## Nc1ccn([C@@H]2O[C@H](CO)[C@@H](O)[C@@H]2O)c(=O)n1 [Cytarabine]
PAXF 546; Homo sapiens, PAXF546
  pIC50: 5.33
PAXF PANC-1; Homo sapiens
  pIC50: 6.80

## Nc1ccn([C@@H]2O[C@H](CO)[C@@H](O)C2(F)F)c(=O)n1 [Gemcitabine HCl]
PAXF 2005
  pIC50: 6.41
PAXF 546; Homo sapiens, PAXF546
  pIC50: 7.01
PAXF 1986
  pIC50: 8.10
PAXF HPAC; Homo sapiens
  pIC50: 6.38
PAXF CAPAN-2; Homo sapiens
  pIC50: 5.44
PAXF 2035
  pIC50: 5.83
PAXF PANC-1; Homo sapiens
  pIC50: 5.28
PAXF 1998
  pIC50: 6.80
PAXF 2059
  pIC50: 7.82

## O=NN(CCCl)C(=O)NCCO [Elmustin]
PAXF 546
  pIC50: 3.14
PAXF PANC-1
  pIC50: 3.43

## CC(C)C[C@H](NC(=O)[C@H](Cc1ccccc1)NC(=O)c1cnccn1)B(O)O [Bortezomib]
PAXF 546; Homo sapiens, PAXF546
  pIC50: 8.30
PAXF PANC-1; Homo sapiens
  pIC50: 7.74

## O=C1c2c(O)ccc(O)c2C(=O)c2c(NCCNCCO)ccc(NCCNCCO)c21 [Mitoxantron 2HCl]
PAXF 2005; PAXF 2005
  pIC50: 7.80
PAXF 546
  pIC50: 6.73
PAXF 1986
  pIC50: 7.46
PAXF 2035
  pIC50: 7.17
PAXF PANC-1
  pIC50: 8.00
PAXF 1998
  pIC50: 6.62
PAXF 2059
  pIC50: 7.46

## COc1cccc2c1C(=O)c1c(O)c3c(c(O)c1C2=O)C[C@@](O)(C(=O)CO)C[C@@H]3O[C@H]1C[C@H](N)[C@H](O)[C@H](C)O1 [Doxorubicin HCl]
PAXF 2005
  pIC50: 6.60
PAXF 546; Homo sapiens, PAXF546
  pIC50: 6.87
PAXF 1986
  pIC50: 7.23
PAXF 2035
  pIC50: 6.10
PAXF PANC-1; Homo sapiens
  pIC50: 7.31
PAXF 1998
  pIC50: 5.91
PAXF 2059
  pIC50: 6.88

## CC(=O)O[C@@]12CO[C@@H]1C[C@H](O)[C@@]1(C)C(=O)[C@H](O)C3=C(C)[C@@H](OC(=O)[C@H](O)[C@@H](NC(=O)OC(C)(C)C)c4ccccc4)C[C@@](O)([C@@H](OC(=O)c4ccccc4)[C@H]21)C3(C)C [Docetaxel]
PAXF 2005
  pIC50: 7.00
PAXF 546; Homo sapiens, PAXF546
  pIC50: 6.98
PAXF 1986
  pIC50: 8.22
PAXF 2035
  pIC50: 8.40
PAXF 1998
  pIC50: 7.82
PAXF 2059
  pIC50: 7.00

## CC(=O)[C@]1(O)Cc2c(O)c3c(c(O)c2[C@@H](O[C@H]2C[C@H](N)[C@H](O)[C@H](C)O2)C1)C(=O)c1ccccc1C3=O [Idarubicin]
PAXF 546; Homo sapiens, PAXF546
  pIC50: 6.88
PAXF PANC-1; Homo sapiens
  pIC50: 7.92

## Vinorelbine bistartrate
PAXF 546
  pIC50: 7.14
PAXF PANC-1
  pIC50: 8.70

## COc1cc([C@@H]2c3cc4c(cc3[C@@H](O[C@@H]3O[C@@H]5CO[C@@H](C)O[C@H]5[C@H](O)[C@H]3O)[C@H]3COC(=O)[C@H]23)OCO4)cc(OC)c1O [Etoposide]
PAXF 546; Homo sapiens, PAXF546
  pIC50: 5.13
PAXF PANC-1; Homo sapiens
  pIC50: 5.83

Source: patent US20230035723A1, “Treatment of Pancreatic Cancer” (SynCore Biotechnology Co., Ltd., priority 2017, published 2023)
